Measurements reported in ChEMBL document CHEMBL1201862, “PubChem BioAssay data set” (2004).
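48-hour exposure; five concentrations; linearly interpolated endpoints. GI50 is the concentration that inhibits growth by half.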 The source made the active and inactive calls. No stated cut-off is given here; in the data, active = GI50 up to about 1.1 µM and inactive = higher.

How the values were obtained:
Test in all cases: NCI tumour cell line growth inhibition, 48 h
[1] = tested on: HCC 2998
[2] = tested on: SK-MEL-5
[3] = tested on: DLD-1
[4] = tested on: SN12C
[5] = tested on: EKVX
[6] = tested on: 786-0
[7] = tested on: SK-OV-3
[8] = tested on: M19-MEL
[9] = tested on: NCI-H226
[10] = tested on: HOP-62
[11] = tested on: SK-MEL-2
[12] = tested on: RPMI-8226
[13] = tested on: LOX IMVI
[14] = tested on: NCI-H522
[15] = tested on: NCI-H460
[16] = tested on: SNB-19
[17] = tested on: T47D
[18] = tested on: DU-145
[19] = tested on: NCI/ADR-RES
[20] = tested on: MDA-MB-231

| SMILES | GI50 [1] | GI50 [2] | GI50 [3] | GI50 [4] | GI50 [5] | GI50 [6] | GI50 [7] | GI50 [8] | GI50 [9] | GI50 [10] | GI50 [11] | GI50 [12] | GI50 [13] | GI50 [14] | GI50 [15] | GI50 [16] | GI50 [17] | GI50 [18] | GI50 [19] | GI50 [20] |
| --- | --- | --- | --- | --- | --- | --- | --- | --- | --- | --- | --- | --- | --- | --- | --- | --- | --- | --- | --- | --- |
| CCOC(=O)C1=C(C)NC2=C(C(=O)N(c3ccccc3)C2c2ccccc2)C1c1ccccc1 (stereo unspecified) | 17.7 µM (inactive) | 15.1 µM (inactive) | 16.5 µM (inactive) | 17.9 µM (inactive) | 17.9 µM (inactive) | 18.9 µM (inactive) | 17.1 µM (inactive) | 17.3 µM (inactive) | 19.9 µM (inactive) | 17.1 µM (inactive) | 17.4 µM (inactive) | 17.1 µM (inactive) | 18.1 µM (inactive) | 12.6 µM (inactive) |  |  |  |  |  |  |
| CC(=O)n1c(=O)c2cc3c(=O)n(-c4cccc(C#N)c4)c(=O)c3cc2c1=O | > 100 µM (inactive) | > 100 µM (inactive) | > 100 µM (inactive) | > 100 µM (inactive) | > 100 µM (inactive) | 90.4 µM (inactive) | > 100 µM (inactive) | > 100 µM (inactive) | > 100 µM (inactive) | 45.5 µM (inactive) | > 100 µM (inactive) |  | > 100 µM (inactive) | > 100 µM (inactive) | > 100 µM (inactive) | 67 µM (inactive) |  |  |  |  |
| CCN(/N=C1\CC2C=CCN(C2)C(=O)Cc2c1[nH]c1ccccc21)S(=O)(=O)c1ccc(C)cc1 (stereo unspecified) | > 100 µM (inactive) | 56.6 µM (inactive) | 53.3 µM (inactive) | 86.7 µM (inactive) | 40.3 µM (inactive) | > 100 µM (inactive) |  | 76.7 µM (inactive) | 14.6 µM (inactive) |  | 88.1 µM (inactive) | 63.1 µM (inactive) | > 100 µM (inactive) | 36.7 µM (inactive) |  | 81.8 µM (inactive) |  |  |  |  |
| c1cncc(CSc2nc3ccccc3nc2-c2cccs2)c1 | 86.1 µM (inactive) | > 100 µM (inactive) | > 100 µM (inactive) | 77.1 µM (inactive) | 98.4 µM (inactive) | 58.2 µM (inactive) |  | > 100 µM (inactive) | 70 µM (inactive) | 71.3 µM (inactive) | 87.1 µM (inactive) | 32.8 µM (inactive) | > 100 µM (inactive) | 33.4 µM (inactive) | 56 µM (inactive) | 77.6 µM (inactive) |  |  |  |  |
| Cc1cc(C)n2c(-c3ccccc3)c(C)cc2n1 | 34.8 µM (inactive) | 26.9 µM (inactive) | 42.3 µM (inactive) | 50.5 µM (inactive) | 64 µM (inactive) | 78 µM (inactive) | 60.3 µM (inactive) | 30.2 µM (inactive) | 36.2 µM (inactive) | 53.7 µM (inactive) | 15.3 µM (inactive) |  | 65 µM (inactive) | 21.2 µM (inactive) | 37.3 µM (inactive) | 52.2 µM (inactive) |  |  |  |  |
| CC1=NN(c2ccccc2)C(=O)C1C(=O)C(=O)Nc1ccc(C)cc1C (stereo unspecified) | > 100 µM (inactive) | > 100 µM (inactive) | > 100 µM (inactive) | > 100 µM (inactive) | > 100 µM (inactive) | > 100 µM (inactive) | > 100 µM (inactive) | > 100 µM (inactive) | > 100 µM (inactive) | > 100 µM (inactive) | > 100 µM (inactive) | > 100 µM (inactive) | > 100 µM (inactive) | > 100 µM (inactive) | > 100 µM (inactive) | > 100 µM (inactive) | > 100 µM (inactive) | > 100 µM (inactive) | > 100 µM (inactive) |  |
| O=C(NN1C(=O)C(Cl)C1c1ccccc1Cl)c1ccccc1O (stereo unspecified) | > 100 µM (inactive) | > 100 µM (inactive) | > 100 µM (inactive) | > 100 µM (inactive) |  | > 100 µM (inactive) | > 100 µM (inactive) | > 100 µM (inactive) | > 100 µM (inactive) |  | > 100 µM (inactive) |  | > 100 µM (inactive) | > 100 µM (inactive) | > 100 µM (inactive) | > 100 µM (inactive) |  |  |  |  |
| O=[N+]([O-])C1C2C=CC(C2)[C@H]1c1ccco1 (stereo partly specified) | > 100 µM (inactive) | > 100 µM (inactive) | > 100 µM (inactive) | > 100 µM (inactive) | > 100 µM (inactive) | > 100 µM (inactive) | > 100 µM (inactive) | > 100 µM (inactive) | > 100 µM (inactive) | > 100 µM (inactive) | > 100 µM (inactive) |  | > 100 µM (inactive) | > 100 µM (inactive) | > 100 µM (inactive) | > 100 µM (inactive) |  |  |  |  |
| N#CC(C#N)=C(N)/C(C#N)=C\c1ccnc2ccccc12 | 37 µM (inactive) | 14.6 µM (inactive) | 5.71 µM (inactive) | 18.8 µM (inactive) |  | 18.9 µM (inactive) |  | 19 µM (inactive) |  | 23.9 µM (inactive) |  |  |  | 30 µM (inactive) | 39.3 µM (inactive) | 31.8 µM (inactive) |  |  |  |  |
| C=C(c1ccccc1)c1cc2c(=O)[nH]ccc2n1C | 35 µM (inactive) | 26 µM (inactive) | 31.9 µM (inactive) | 34.2 µM (inactive) | 39.4 µM (inactive) | 27.5 µM (inactive) | 26 µM (inactive) | 38.6 µM (inactive) |  | 25 µM (inactive) | 21.5 µM (inactive) | 24.7 µM (inactive) | 37.2 µM (inactive) | 16.3 µM (inactive) | 30.1 µM (inactive) | 48 µM (inactive) |  |  |  |  |
| Clc1ccc(-c2nnc(-c3nn(-c4ccccc4)c4nc5ccccc5nc34)o2)cc1 | > 100 µM (inactive) | 12.9 µM (inactive) | 18.9 µM (inactive) | > 100 µM (inactive) | > 100 µM (inactive) | > 100 µM (inactive) | > 100 µM (inactive) | 70.6 µM (inactive) | 76 µM (inactive) | > 100 µM (inactive) | > 100 µM (inactive) | 24.7 µM (inactive) | > 100 µM (inactive) | > 100 µM (inactive) | > 100 µM (inactive) | > 100 µM (inactive) |  |  |  |  |
| CSc1nc2nccnc2c(=O)[nH]1 | > 100 µM (inactive) | > 100 µM (inactive) | > 100 µM (inactive) | > 100 µM (inactive) | > 100 µM (inactive) | > 100 µM (inactive) | > 100 µM (inactive) | > 100 µM (inactive) | > 100 µM (inactive) | > 100 µM (inactive) | > 100 µM (inactive) | > 100 µM (inactive) | > 100 µM (inactive) | > 100 µM (inactive) | > 100 µM (inactive) | > 100 µM (inactive) |  |  |  |  |
| COc1ccc(-c2cc(=O)c3c(O)cccc3o2)c(OC)c1OC | > 100 µM (inactive) | 24.7 µM (inactive) | > 100 µM (inactive) | 76.9 µM (inactive) |  | > 100 µM (inactive) | > 100 µM (inactive) | > 100 µM (inactive) | > 100 µM (inactive) | 10.3 µM (inactive) | 20.2 µM (inactive) | > 100 µM (inactive) | 55.2 µM (inactive) | > 100 µM (inactive) | 80 µM (inactive) |  |  |  |  |  |
| N#CC(Cl)CS(=O)(=O)c1ccccc1 (stereo unspecified) | 15.8 µM (inactive) | 15.8 µM (inactive) | 1.93 µM (inactive) | 16.5 µM (inactive) | 18.6 µM (inactive) | 16.8 µM (inactive) | 19.5 µM (inactive) | 15.8 µM (inactive) | 22.1 µM (inactive) | > 44.6 µM (inactive) | 16.1 µM (inactive) | 3.32 µM (inactive) | 7.14 µM (inactive) | 0.681 µM (active) | 18.6 µM (inactive) | 18.9 µM (inactive) | 2.85 µM (inactive) | 17.5 µM (inactive) |  | 19.7 µM (inactive) |
| COc1cc([N+](=O)[O-])ccc1NC(=O)c1cccc([N+](=O)[O-])c1O | 19 µM (inactive) | 6.46 µM (inactive) | 16.1 µM (inactive) | 14.7 µM (inactive) | 29.1 µM (inactive) |  | 23.1 µM (inactive) | 24.6 µM (inactive) | 38.7 µM (inactive) | 36.6 µM (inactive) | 17.5 µM (inactive) | 10.3 µM (inactive) | 22.2 µM (inactive) | 11.6 µM (inactive) | 27.7 µM (inactive) | 41.5 µM (inactive) |  |  |  |  |
| COc1ccc(C2ON(c3ccccn3)CC=C2C)cc1 (stereo unspecified) | > 100 µM (inactive) | > 100 µM (inactive) | > 100 µM (inactive) | > 100 µM (inactive) | > 100 µM (inactive) | > 100 µM (inactive) | > 100 µM (inactive) | > 100 µM (inactive) | > 100 µM (inactive) | > 100 µM (inactive) | > 100 µM (inactive) | 60.1 µM (inactive) | > 100 µM (inactive) | 47.4 µM (inactive) | > 100 µM (inactive) | > 100 µM (inactive) |  |  |  |  |
| CCc1ccccc1NC(=O)C1=C(C)NC(C)=C(C(=O)Nc2ccccc2CC)C1c1cccc([N+](=O)[O-])c1 | 11.7 µM (inactive) | 27.7 µM (inactive) | 19.9 µM (inactive) | 70.6 µM (inactive) | 34 µM (inactive) | 43 µM (inactive) | > 100 µM (inactive) | 44.7 µM (inactive) | 29.8 µM (inactive) | 38.3 µM (inactive) | 19.5 µM (inactive) | 11.7 µM (inactive) | 87.9 µM (inactive) | 22.2 µM (inactive) | 27.7 µM (inactive) | 59.4 µM (inactive) |  |  |  |  |
